Test results taken from PubChem BioAssay AID328 (DTP/NCI, 2004).
Where “and” joins values, the source holds several entries; their conditions need not be identical. Equal values may be shown once. Inconclusive results and toxic doses are left out.

Test system: BDF1 mice, P388 leukemia ip, median survival T/C
Test: NCI In Vivo Anticancer Drug Screen. Data for tumor model P388 Leukemia (intraperitoneal) in B6D2F1 (BDF1) mice
Conditions: endpoint: median survival time, higher = longer survival
How it was run: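 Compound-treated tumour-bearing mice were compared with vehicle-treated controls. Survival was recorded, and the value is the treated-group measurement divided by the control-group measurement (T/C).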

[1] = dose: 3.12 mg/kg/injection, schedule: Q01DX009 (ip), vehicle: saline
[2] = dose: 6.25 mg/kg/injection, schedule: Q01DX009 (ip), vehicle: saline
[3] = dose: 12.5 mg/kg/injection, schedule: Q01DX009 (ip), vehicle: saline
[4] = dose: 100.0 mg/kg/injection, schedule: Q01DX009 (ip), vehicle: saline
[5] = dose: 100.0 mg/kg/injection, schedule: Q04DX003 (ip), vehicle: saline
[6] = dose: 200.0 mg/kg/injection, schedule: Q01DX009 (ip), vehicle: saline
[7] = dose: 200.0 mg/kg/injection, schedule: Q04DX003 (ip), vehicle: saline
[8] = dose: 100.0 mg/kg/injection, schedule: Q04DX003 (ip), vehicle: Klucel (hydroxypropylcellulose) (HPC)
[9] = dose: 200.0 mg/kg/injection, schedule: Q04DX003 (ip), vehicle: Klucel (hydroxypropylcellulose) (HPC)
[10] = dose: 400.0 mg/kg/injection, schedule: Q04DX003 (ip), vehicle: Klucel (hydroxypropylcellulose) (HPC)
[11] = dose: 18.75 mg/kg/injection, schedule: Q04DX003 (ip), vehicle: saline
[12] = dose: 37.5 mg/kg/injection, schedule: Q04DX003 (ip), vehicle: saline
[13] = dose: 50.0 mg/kg/injection, schedule: Q01DX009 (ip), vehicle: saline with Tween-80
[14] = dose: 100.0 mg/kg/injection, schedule: Q01DX009 (ip), vehicle: saline with Tween-80
[15] = dose: 200.0 mg/kg/injection, schedule: Q01DX009 (ip), vehicle: saline with Tween-80
[16] = dose: 100.0 mg/kg/injection, schedule: Q01DX009 (ip), vehicle: Klucel (hydroxypropylcellulose) (HPC)
[17] = dose: 200.0 mg/kg/injection, schedule: Q01DX009 (ip), vehicle: Klucel (hydroxypropylcellulose) (HPC)
[18] = dose: 50.0 mg/kg/injection, schedule: Q04DX002 (ip), vehicle: saline with Tween-80
[19] = dose: 100.0 mg/kg/injection, schedule: Q04DX002 (ip), vehicle: saline with Tween-80
[20] = dose: 200.0 mg/kg/injection, schedule: Q04DX002 (ip), vehicle: saline with Tween-80
[21] = dose: 100.0 mg/kg/injection, schedule: Q04DX003 (ip), vehicle: saline with Tween-80
[22] = dose: 400.0 mg/kg/injection, schedule: Q01DX009 (ip), vehicle: saline

COc1ccc2c(c1)N(C)CCCC2=O
T/C [1]: 91 % of control | T/C [2]: 103 % of control | T/C [3]: 91 % of control | T/C (dose: 25.0 mg/kg/injection, schedule: Q01DX009 (ip), vehicle: saline): 87 % of control and 91 % of control | T/C (dose: 50.0 mg/kg/injection, schedule: Q01DX009 (ip), vehicle: saline): 108 % of control and 113 % of control | T/C (dose: 50.0 mg/kg/injection, schedule: Q04DX003 (ip), vehicle: saline): 99 % of control | T/C [4]: 92 % of control | T/C [5]: 103 % of control | T/C [6]: 89 % of control | T/C [7]: 99 % of control

CCN(CCNc1ccc(C)c2sc3cc(Cl)ccc3c(=O)c12)CC(C)O (stereo not drawn)
T/C [4]: 109 % of control | T/C [6]: 104 % of control

CC1(C)C2CC3C(C(=O)O)CCCC3(C2)C1Br (stereo not drawn)
T/C [8]: 90 % of control | T/C [9]: 100 % of control | T/C [10]: 95 % of control

CCCC1CC[N-]CC1.CCCC1CC[N-]CC1.[Cl][Co][Cl]
T/C (dose: 12.5 mg/kg/injection, schedule: Q01DX009 (ip), vehicle: water): 91 % of control and 100 % of control | T/C (dose: 25.0 mg/kg/injection, schedule: Q01DX009 (ip), vehicle: water): 116 % of control | T/C (dose: 50.0 mg/kg/injection, schedule: Q01DX009 (ip), vehicle: water): 112 % of control | T/C (dose: 50.0 mg/kg/injection, schedule: Q04DX003 (ip), vehicle: water): 120 % of control

CN(C)CCCN1CCC2(CC[C@H]3CCCC[C@@H]3C2)CC1
T/C [11]: 100 % of control | T/C [12]: 109 % of control | T/C (dose: 75.0 mg/kg/injection, schedule: Q04DX003 (ip), vehicle: saline): 113 % of control

CC(C)CC(NC(=O)C(O)C(N)Cc1ccccc1)C(=O)O (stereo not drawn)
T/C (dose: 37.5 mg/kg/injection, schedule: Q01DX009 (ip), vehicle: saline with Tween-80): 94 % of control and 98 % of control | T/C (dose: 75.0 mg/kg/injection, schedule: Q01DX009 (ip), vehicle: saline with Tween-80): 95 % of control and 98 % of control | T/C (dose: 150.0 mg/kg/injection, schedule: Q01DX009 (ip), vehicle: saline with Tween-80): 95 % of control and 100 % of control

CCCCN(C)N=Nc1ccc(CCCC(=O)OCC)cc1
T/C (dose: 12.5 mg/kg/injection, schedule: Q01DX009 (ip), vehicle: saline with Tween-80): 91 % of control | T/C (dose: 25.0 mg/kg/injection, schedule: Q01DX009 (ip), vehicle: saline with Tween-80): 100 % of control | T/C [13]: 117 % of control | T/C (dose: 132.0 mg/kg/injection, schedule: Q04DX003 (ip), vehicle: saline): 95 % of control | T/C [7]: 156 % of control | T/C (dose: 300.0 mg/kg/injection, schedule: Q04DX003 (ip), vehicle: saline): 121 % of control

O=C1/C(=C/c2ccc(Cl)cc2)SC(=S)N1CCCN1CCOCC1
T/C [13]: 91 % of control | T/C [14]: 88 % of control | T/C [15]: 91 % of control

O=C(O)COc1ccccc1OCC(=O)O
T/C (dose: 50.0 mg/kg/injection, schedule: Q01DX009 (ip), vehicle: Klucel (hydroxypropylcellulose) (HPC)): 109 % of control | T/C [16]: 100 % of control | T/C [17]: 100 % of control

CSC1(CC(=O)N2CCCCC2)C(=O)Nc2ccccc21 (stereo not drawn)
T/C [18]: 95 % of control | T/C [19]: 101 % of control | T/C [20]: 95 % of control

C=C(C)C(=O)O[C@H]1C[C@@]23O[C@@H]2CCC(=C[C@H]2OC(=O)C(=C)[C@H]12)COC3O (stereo partly drawn)
T/C (dose: 9.37 mg/kg/injection, schedule: Q01DX009 (ip), vehicle: saline): 108 % of control | T/C (dose: 18.75 mg/kg/injection, schedule: Q01DX009 (ip), vehicle: saline): 104 % of control | T/C [11]: 113 % of control | T/C [12]: 95 % of control

O=C(O)C(CSC(c1ccccc1)(c1ccccc1)c1ccccc1)N=Cc1ccccc1O (stereo not drawn)
T/C [13]: 159 % of control | T/C (dose: 66.0 mg/kg/injection, schedule: Q04DX003 (ip), vehicle: saline with Tween-80): 104 % of control | T/C [14]: 186 % of control | T/C [21]: 190 % of control | T/C (dose: 150.0 mg/kg/injection, schedule: Q04DX003 (ip), vehicle: saline with Tween-80): 177 % of control | T/C [15]: 272 % of control

C#CCOc1ccccc(Br)c1=O
T/C [18]: 115 % of control | T/C [19]: 104 % of control | T/C [20]: 106 % of control

COc1cc2cc(-c3cc(OC)c(OC)c(OC)c3)c3c(c2cc1OC)CNC3=O
T/C [4]: 110 % of control | T/C [5]: 101 % of control | T/C [6]: 112 % of control | T/C [7]: 108 % of control | T/C [22]: 91 % of control | T/C (dose: 400.0 mg/kg/injection, schedule: Q04DX003 (ip), vehicle: saline): 100 % of control

O=C(Nc1cccc(Cl)c1)ON1CCCCC1
T/C [13]: 106 % of control | T/C [14]: 97 % of control | T/C [15]: 100 % of control

CC(=O)O/N=C(/C)c1ccccc1
T/C (dose: 25.0 mg/kg/injection, schedule: Q04DX003 (ip), vehicle: saline sonified): 100 % of control | T/C (dose: 50.0 mg/kg/injection, schedule: Q04DX003 (ip), vehicle: saline sonified): 100 % of control | T/C (dose: 100.0 mg/kg/injection, schedule: Q04DX003 (ip), vehicle: saline sonified): 100 % of control

S=C(NCCCN1CCOCC1)NN=C1c2ccccc2-c2ccccc21
T/C [13]: 97 % of control | T/C [14]: 91 % of control | T/C [15]: 97 % of control

CC1(C)N=C(N)N=C(N)N1c1cccc(OCCOc2ccc(NC(=O)CBr)cc2)c1
T/C (dose: 50.0 mg/kg/injection, schedule: Q01DX009 (ip), vehicle: saline sonified): 116 % of control | T/C (dose: 100.0 mg/kg/injection, schedule: Q01DX009 (ip), vehicle: saline sonified): 111 % of control

CCCCCCC[CH2][Sn](=[O])[CH2]CCCCCCC
T/C [1]: 120 % of control | T/C [2]: 100 % of control | T/C [3]: 115 % of control | T/C (dose: 22.0 mg/kg/injection, schedule: Q04DX003 (ip), vehicle: other): 109 % of control | T/C (dose: 25.0 mg/kg/injection, schedule: Q01DX009 (ip), vehicle: Klucel (hydroxypropylcellulose) (HPC)): 86 % of control | T/C (dose: 33.0 mg/kg/injection, schedule: Q04DX003 (ip), vehicle: Klucel (hydroxypropylcellulose) (HPC)): 100 % of control and 114 % of control | T/C (dose: 33.0 mg/kg/injection, schedule: Q04DX003 (ip), vehicle: other): 118 % of control | T/C (dose: 50.0 mg/kg/injection, schedule: Q04DX003 (ip), vehicle: other): 100 % of control | T/C [8]: 90 % of control

Cc1c([N+](=O)[O-])c(C)c([N+](=O)[O-])c(C(C)(C)C)c1[N+](=O)[O-]
T/C [16]: 100 % of control | T/C [8]: 87 % of control | T/C [17]: 87 % of control | T/C [9]: 87 % of control | T/C (dose: 400.0 mg/kg/injection, schedule: Q01DX009 (ip), vehicle: Klucel (hydroxypropylcellulose) (HPC)): 95 % of control | T/C [10]: 91 % of control

Cc1ccc(S(=O)(=O)OC2CCN(C)CC2)cc1
T/C (dose: 3.0 mg/kg/injection, schedule: Q04DX003 (ip), vehicle: saline): 100 % of control | T/C (dose: 6.0 mg/kg/injection, schedule: Q04DX003 (ip), vehicle: saline): 95 % of control | T/C (dose: 12.0 mg/kg/injection, schedule: Q04DX003 (ip), vehicle: saline): 100 % of control | T/C (dose: 25.0 mg/kg/injection, schedule: Q04DX003 (ip), vehicle: saline): 100 % of control

Cc1c2ccnc(-c3ccccc3)c2cc2c1[nH]c1ccccc12
T/C [13]: 102 % of control | T/C [14]: 100 % of control | T/C [15]: 102 % of control

c1cc2cccc3c2c(c1)c1sc2c4cccc5cccc(c54)c2c31
T/C [21]: 91 % of control | T/C (dose: 200.0 mg/kg/injection, schedule: Q04DX003 (ip), vehicle: saline with Tween-80): 100 % of control

NNC(=O)C(=O)NCc1ccco1
T/C [13]: 98 % of control

CCOC(=O)CCN1CC(C)OC(C)C1 (stereo not drawn)
T/C [4]: 100 % of control | T/C [6]: 109 % of control | T/C [22]: 100 % of control
